Where “and” joins values, the source holds several entries; their conditions need not be identical. Equal entries are not always repeated.
Assays:
DIR domain of OsJAC1 [1] = biological target: T1, DIR domain of OsJAC1 (Oryza sativa, UniProt Q306J3, T49I); experiment: nano differential scanning fluorimetry; assay type: binding; conditions: 50 mM sugar, 4 mM DTT, 50 mM KPi pH 7.4
T1 construct: gene JAC1; isolated dirigent domain SKLQITPCGM...FCPLLKGS; Thr to Ile point mutation (NDKKIGLG); N-terminal His6 tag and thrombin site kept; E. coli BL21(DE3), pET15b(+); dimer/tetramer by SEC
T1 sequence (Q306J3 5-159 T49I): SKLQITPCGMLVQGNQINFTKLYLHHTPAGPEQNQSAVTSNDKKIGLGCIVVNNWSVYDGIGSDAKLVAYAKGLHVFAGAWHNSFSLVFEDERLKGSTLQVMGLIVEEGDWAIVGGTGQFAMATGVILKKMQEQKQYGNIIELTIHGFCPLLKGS

OsJAC1 [2] = biological target: T2, OsJAC1 (Oryza sativa, UniProt Q306J3); experiment: nano differential scanning fluorimetry; assay type: binding; conditions: 50 mM sugar, 4 mM DTT, 50 mM KPi pH 7.4, TM2 = DIR domain transition
T2 construct: gene JAC1; full length, DIR + JRL domains; N-terminal His6 tag and thrombin site kept; E. coli BL21(DE3), pColdIV
T2 sequence (Q306J3 1-306): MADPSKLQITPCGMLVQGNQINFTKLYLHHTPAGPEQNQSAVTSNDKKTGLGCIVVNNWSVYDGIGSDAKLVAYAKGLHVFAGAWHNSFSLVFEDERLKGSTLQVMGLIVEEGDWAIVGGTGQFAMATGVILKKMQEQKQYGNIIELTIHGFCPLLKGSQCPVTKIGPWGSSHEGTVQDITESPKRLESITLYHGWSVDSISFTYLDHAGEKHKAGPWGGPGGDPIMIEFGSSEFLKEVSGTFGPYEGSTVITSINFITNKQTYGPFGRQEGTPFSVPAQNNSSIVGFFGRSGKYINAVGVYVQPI

OsJAC1 [3] = biological target: T2, OsJAC1; experiment: nano differential scanning fluorimetry; assay type: binding; conditions: 50 mM sugar, 4 mM DTT, 50 mM KPi pH 7.4; TM1 = JRL domain transition
JRL domain of OsJAC1 = biological target: T3, JRL domain of OsJAC1 (Oryza sativa, UniProt Q306J3); experiment: nano differential scanning fluorimetry; assay type: binding; conditions: 50 mM sugar, 4 mM DTT, 50 mM KPi pH 7.4; 1:1 mixture with DIR domain
T3 construct: gene JAC1; isolated jacalin-related lectin domain QCPVTKIGPWGSSHEG...INAVGVYVQPI; N-terminal His6 tag and thrombin site kept; E. coli BL21(DE3), pET15b(+); thermal shifts measured in 1:1 mixture with the isolated DIR domain
T3 sequence (Q306J3 160-306): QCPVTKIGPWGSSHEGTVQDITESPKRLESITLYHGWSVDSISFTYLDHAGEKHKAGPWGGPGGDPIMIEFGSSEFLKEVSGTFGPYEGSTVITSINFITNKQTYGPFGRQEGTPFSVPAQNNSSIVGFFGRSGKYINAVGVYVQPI

DIR domain of OsJAC1 [4] = biological target: T1, DIR domain of OsJAC1; experiment: nano differential scanning fluorimetry; near-UV CD; assay type: binding; conditions: 50 mM sugar, 4 mM DTT, 50 mM KPi pH 7.4; CD with 1 mM sugar
[5] = biological target: DIR (dirigent) domain protein of OsJAC1, His6-tagged (Oryza sativa); experiment: SEC; HiLoad 16/600 Superdex 200 pg; 50 mM KPi pH 7.4, 300 mM NaCl; 1 mL of 10 mg/mL protein injected, 1 mL/min; apparent masses from calibration proteins
[6] = biological target: the molecule itself; experiment: dynamic light scattering; OsJAC1 1.1 mg/mL in 15 mM TRIS-HCl pH 7.4, alone or with 150 mM CaCl2, 50 mM lactose, 150 mM MgSO4 or 4 mM DTT; apparent molecular masses

Molecule: OC[C@H]1O[C@@H](O[C@H]2[C@H](O)[C@@H](O)C(O)O[C@@H]2CO)[C@H](O)[C@@H](O)[C@H]1O (some centres unmarked) [lactose]
- dTM2 (DIR domain of OsJAC1 [1]): (e.g., galactose and lactose) had a positive impact on TM2 of the DIR domain
- dTM2 (OsJAC1 [2]): (e.g., galactose and lactose) had a positive impact on TM2 of the DIR domain

Molecule: OC[C@H]1OC(O)[C@H](O)[C@@H](O)[C@H]1O (some centres unmarked) [galactose]
- dTM2 (DIR domain of OsJAC1 [1]; printed as up to): ~ 3 K
- dTM2 (OsJAC1 [2]; printed as up to): ~ 2 K

Molecule: OC[C@H]1OC(O)[C@@H](O)[C@@H](O)[C@@H]1O (some centres unmarked) [mannose]
- dTM1 (OsJAC1 [3]): 1 K
- dTM1 (JRL domain of OsJAC1): 1 K

Molecule: OC[C@H]1OC(O)[C@H](O)[C@@H](O)[C@@H]1O (some centres unmarked) [glucose]
- dTM1 (OsJAC1 [3]): 1 K
- dTM1 (JRL domain of OsJAC1): 1 K

Molecule: OC[C@H]1O[C@@H](O[C@@H]2[C@H](O)[C@@H](O)C(O)O[C@@H]2CO)[C@H](O)[C@@H](O)[C@H]1O (some centres unmarked) [galactobiose]
- dTM2 (DIR domain of OsJAC1 [4]): galactobiose (DIR domain) and laminaribiose (JRL domain), caused major shifts in the CD spectra

Molecule: DIR (dirigent) domain protein of OsJAC1, His6-tagged (domain or fragment)
- stoichiometry N [5]: 2 and 4

B1: monocot chimeric jacalin OsJAC1 from Oryza sativa, full-length protein, His6-tagged (natural protein)
chain: MADPSKLQITPCGMLVQGNQINFTKLYLHHTPAGPEQNQSAVTSNDKKTGLGCIVVNNWSVYDGIGSDAKLVAYAKGLHVFAGAWHNSFSLVFEDERLKGSTLQVMGLIVEEGDWAIVGGTGQFAMATGVILKKMQEQKQYGNIIELTIHGFCPLLKGSQCPVTKIGPWGSSHEGTVQDITESPKRLESITLYHGWSVDSISFTYLDHAGEKHKAGPWGGPGGDPIMIEFGSSEFLKEVSGTFGPYEGSTVITSINFITNKQTYGPFGRQEGTPFSVPAQNNSSIVGFFGRSGKYINAVGVYVQPI
notes: OsJAC1 of rice (Oryza sativa), full-length protein; numbers count on: the His6-tagged construct as printed (23 tag and linker residues before M24); no cleavage of the tag is described; also called full-length OsJAC1; chimeric lectin OsJAC1; source: E. coli BL21(DE3), purified (IMAC on Ni-NTA, SEC); not shown: His6, N-terminal, kept
- binding result [6]: binds

From paper PMC8197871, “Biochemical and Initial Structural Characterization of the Monocot Chimeric Jacalin OsJAC1” (International Journal of Molecular Sciences, 2021)
